Patent publication US8207172B2 (Bayer Intellectual Property GmbH, priority 2004, dated 2012)
Structures can show the parent of a compound that is named as a salt.

Experiments:
[1] = tested on: A431 cells (human epidermoid carcinoma); assay: In vitro tumor cell proliferation assay (Cell Titer-Glo luminescent cell viability), A431; type: cell-based; details: A-431, 72 h, 72 hours of drug exposure, ATP luminescence readout, read-out: IC50, anti-proliferative activity (inhibition of cell proliferation)
Procedure, shortened: (§1)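 Seeding density 2.5×10^3 cells/well; 72 h drug exposure at 37° C; endpoint CellTiter-Glo luminescence, reported as IC50.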

[2] = tested on: BT474 (human breast carcinoma); assay: In vitro tumor cell proliferation assay (Cell Titer-Glo luminescent cell viability), BT474; type: cell-based; details: BT-474, 72 h, BT474 cells, 72 hours of drug exposure, ATP luminescence readout, read-out: IC50, anti-proliferative activity (inhibition of cell proliferation)
Procedure, shortened: as §1

| IC50 [1] | IC50 [2] | SMILES |
| --- | --- | --- |
| ≤ 50 µM | ≤ 1 µM | CN(C)C1CCN(CCn2ncc3c2CCc2c-3sc3ncnc(Nc4ccc5c(cnn5Cc5cccc(F)c5)c4)c23)C1 (stereo not shown) [Example 293, 3-{2-[3-(dimethylamino)pyrrolidin-1-yl]ethyl}-N-[1-(3-fluorobenzyl)-1H-indazol-5-yl]-4,5-dihydro-3H-pyrimido[5′,4′:4,5]thieno[2,3-e]indazol-6-amine] |
| ≤ 5 µM | ≤ 1 µM | CN1CCN(CCn2ncc3c2CCc2c-3sc3ncnc(Nc4ccc5c(cnn5Cc5cccc(F)c5)c4)c23)CC1 [Example 295, 3-[2-(4-methylpiperazin-1-yl)ethyl]-N-[1-(3-fluorobenzyl)-1H-indazol-5-yl]-4,5-dihydro-3H-pyrimido[5′,4′:4,5]thieno[2,3-e]indazol-6-amine] |
| ≤ 5 µM | ≤ 1 µM | COCCNCCn1ncc2c1CCc1c-2sc2ncnc(Nc3ccc4c(cnn4Cc4cccc(F)c4)c3)c12 [Example 297, N-[1-(3-fluorobenzyl)-1H-indazol-5-yl]-3-{2-[(2-methoxyethyl)amino]ethyl}-4,5-dihydro-3H-pyrimido[5′,4′:4,5]thieno[2,3-e]indazol-6-amine] |
| ≤ 5 µM | ≤ 1 µM | CCN1CCN(CCn2cc3c(n2)CCc2c-3sc3ncnc(Nc4ccc5c(cnn5Cc5ccccc5)c4)c23)CC1 [Example 305, N-(1-benzyl-1H-indazol-5-yl)-2-[2 (4-ethylpiperazin-1-yl)ethyl]-4,5-dihydro-2H-pyrimido[5′,4′:4,5]thieno[2,3-e]indazol-6-amine] |
| ≤ 50 µM | ≤ 1 µM | COCCN1CCN(CCn2cc3c(n2)CCc2c-3sc3ncnc(Nc4ccc5c(cnn5Cc5ccccc5)c4)c23)CC1 [Example 308, N-(1-benzyl-1H-indazol-5-yl)-2-{2-[4-(2-methoxyethyl)piperazin-1-yl]ethyl}-4,5-dihydro-2H-pyrimido[5′,4′:4,5]thieno[2,3-e]indazol-6-amine] |
| ≤ 5 µM | ≤ 1 µM | c1ccc(Cn2ncc3cc(Nc4ncnc5sc6c(c45)CCc4n[nH]cc4-6)ccc32)cc1 [Example 309, N-(1-benzyl-1H-indazol-5-yl)-4,5-dihydro-2H-pyrimido[5′,4′:4,5]thieno[2,3-e]indazol-6-amine] |
| ≤ 5 µM | ≤ 1 µM | OCCn1ncc2c1CCc1c-2sc2ncnc(Nc3ccc4c(cnn4Cc4ccccc4)c3)c12 [Example 310, 2-{6-[(1-benzyl-1H-indazol-5-yl)amino]-4,5-dihydro-3H-pyrimido[5′,4′:4,5]thieno[2,3-e]indazol-3-yl}ethanol] |
| ≤ 50 µM | ≤ 5 µM | COCCn1cc2c(n1)CCc1c-2sc2ncnc(Nc3ccc(OCc4cccc(F)c4)c(Cl)c3)c12 [Example 312, N-{3-chloro-4-[(3-fluorobenzyl)oxy]phenyl}-2-(2-methoxyethyl)-4,5-dihydro-2H-pyrimido[5′,4′:4,5]thieno[2,3-e]indazol-6-amine] |
| ≤ 5 µM | ≤ 1 µM | NCC(=O)OCCn1cc2c(n1)CCc1c-2sc2ncnc(Nc3ccc(OCc4cccc(F)c4)c(Cl)c3)c12 [Example 315, 2-[6-({3-chloro-4-[(3-fluorobenzyl)oxy]phenyl}amino)-4,5-dihydro-2H-pyrimido[5′,4′:4,5]thieno[2,3-e]indazol-2-yl]ethyl glycinate] |
| ≤ 50 µM | ≤ 50 µM | Cc1cc(Nc2ncnc3sc4c(c23)CCc2c-4cnn2CCN2CCN(C)CC2)ccc1O [Example 316, 2-methyl-4-({3-[2-(4-methylpiperazin-1-yl)ethyl]-4,5-dihydro-3H-pyrimido[5′,4′:4,5]thieno[2,3-e]indazol-6-yl}amino)phenol] |
| ≤ 5 µM | ≤ 5 µM | Cc1cccc(COc2ccc(Nc3ncnc4sc5c(c34)CCc3c-5cnn3CCN3CCN(C)CC3)cc2Cl)c1 [Example 320, N-{3-chloro-4-[(3-methylbenzyl)oxy]phenyl}-3-(2-(4-methylpiperazin-1-yl)ethyl]-4,5-dihydro-3H-pyrimido[5′,4′:4,5]thieno[2,3-e]indazol-6-amine trifluoroacetate] |

More lines, now with the values behind:

| SMILES | IC50 [1] | IC50 [2] |
| --- | --- | --- |
| Fc1cccc(Cn2ncc3cc(Nc4ncnc5sc6c(c45)CCc4c-6cnn4CCn4ccnc4)ccc32)c1 [Example 291, N-[1-(3-fluorobenzyl)-1H-indazol-5-yl]-3-[2-(1H-imidazol-1-yl)ethyl]-4,5-dihydro-3H-pyrimido[5′,4′:4,5]thieno[2,3-e]indazol-6-amine] | ≤ 5 µM | ≤ 1 µM |
| COCCN(CCOC)CCn1ncc2c1CCc1c-2sc2ncnc(Nc3ccc4c(cnn4Cc4cccc(F)c4)c3)c12 [Example 292, 3-{2-[bis(2-methoxyethyl)amino]ethyl}-N-[1-(3-fluorobenzyl)-1H-indazol-5-yl]-4,5-dihydro-3H-pyrimido[5′,4′:4,5]thieno[2,3-e]indazol-6-amine] | ≤ 5 µM | ≤ 1 µM |
| CCN1CCN(CCn2ncc3c2CCc2c-3sc3ncnc(Nc4ccc5c(cnn5Cc5cccc(F)c5)c4)c23)CC1 [Example 294, 3-[2-(4-ethylpiperazin-1-yl)ethyl]-N-[1-(3-fluorobenzyl)-1H-indazol-5-yl]-4,5-dihydro-3H-pyrimido[5′,4′:4,5]thieno[2,3-e]indazol-6-amine] | ≤ 50 µM | ≤ 1 µM |
| Fc1cccc(Cn2ncc3cc(Nc4ncnc5sc6c(c45)CCc4c-6cnn4CCN4CCOCC4)ccc32)c1 [Example 296, N-[1-(3-fluorobenzyl)-1H-indazol-5-yl]-3-(2-morpholin-4-ylethyl)-4,5-dihydro-3H-pyrimido[5′,4′:4,5]thieno[2,3-e]indazol-6-amine] | ≤ 5 µM | ≤ 1 µM |
| Fc1cccc(Cn2ncc3cc(Nc4ncnc5sc6c(c45)CCc4c-6cnn4CCN4CCNCC4)ccc32)c1 [Example 298, N-[1-(3-fluorobenzyl)-1H-indazol-5-yl]-3-(2-piperazin-1-ylethyl)-4,5-dihydro-3H-pyrimido[5′,4′:4,5]thieno[2,3-e]indazol-6-amine] | ≤ 5 µM | ≤ 1 µM |
| OC1CCN(CCn2ncc3c2CCc2c-3sc3ncnc(Nc4ccc5c(cnn5Cc5cccc(F)c5)c4)c23)C1 (stereo not shown) [Example 299, 1-[2-(6-{[1-(3-fluorobenzyl)-1H-indazol-5-yl]amino}-4,5-dihydro-3H-pyrimido[5′,4′:4,5]thieno[2,3-e]indazol-3-yl)ethyl]pyrrolidin-3-ol] | ≤ 5 µM | ≤ 1 µM |
| OCCNCCn1ncc2c1CCc1c-2sc2ncnc(Nc3ccc4c(cnn4Cc4cccc(F)c4)c3)c12 [Example 300, 2-{[2-(6-{[1-(3-fluorobenzyl)-1H-indazol-5-yl]amino}-4,5-dihydro-3H-pyrimido[5′,4′:4,5]thieno[2,3-e]indazol-3-yl)ethyl]amino}ethanol] | ≤ 5 µM | ≤ 1 µM |
| OCCn1cc2c(n1)CCc1c-2sc2ncnc(Nc3ccc4c(cnn4Cc4ccccc4)c3)c12 [Example 302, 2-{6-[(1-benzyl-1H-indazol-5-yl)amino]-4,5-dihydro-2H-pyrimido[5′,4′:4,5]thieno[2,3-e]indazol-2-yl}ethanol] | ≤ 5 µM | ≤ 1 µM |
| c1ccc(Cn2ncc3cc(Nc4ncnc5sc6c(c45)CCc4nn(CCN5CCOCC5)cc4-6)ccc32)cc1 [Example 304, N-(1-benzyl-1H-indazol-5-yl)-2-(2-morpholin-4-ylethyl)-4,5-dihydro-2H-pyrimido[5′,4′:4,5]thieno[2,3-e]indazol-6-amine] | ≤ 50 µM | ≤ 1 µM |
| CS(=O)(=O)CCNCCn1cc2c(n1)CCc1c-2sc2ncnc(Nc3ccc4c(cnn4Cc4ccccc4)c3)c12 [Example 307, N-(1-benzyl-1H-indazol-5-yl)-2-(2-{[2-(methylsulfonyl)ethyl]amino}ethyl)-4,5-dihydro-2H-pyrimido[5′,4′:4,5]thieno[2,3-e]indazol-6-amine] | ≤ 50 µM | ≤ 1 µM |
| NS(=O)(=O)OCCn1cc2c(n1)CCc1c-2sc2ncnc(Nc3ccc(OCc4cccc(F)c4)c(Cl)c3)c12 [Example 311, 2-[6-({3-chloro-4-[(3-fluorobenzyl)oxy]phenyl}amino)-4,5-dihydro-2H-pyrimido[5′,4′:4,5]thieno[2,3-e]indazol-2-yl]ethyl sulfamate] | ≤ 50 µM | ≤ 1 µM |
| CC(C)(C)OC(=O)NCC(=O)OCCn1cc2c(n1)CCc1c-2sc2ncnc(Nc3ccc(OCc4cccc(F)c4)c(Cl)c3)c12 [Example 314, 2-[6-({3-chloro-4-[(3-fluorobenzyl)oxy]phenyl}amino)-4,5-dihydro-2H-pyrimido[5′,4′:4,5]thieno[2,3-e]indazol-2-yl]ethyl N-(tert-butoxycarbonyl)glycinate] | ≤ 5 µM | ≤ 1 µM |
| CN1CCN(CCn2ncc3c2CCc2c-3sc3ncnc(Nc4ccc(OCc5cccc(Cl)c5)c(Cl)c4)c23)CC1 [Example 317, N-{3-chloro-4-[(3-chlorobenzyl)oxy]phenyl}-3-[2-(4-methylpiperazin-1-yl)ethyl]-4,5-dihydro-3H-pyrimido[5′,4′:4,5]thieno[2,3-e]indazol-6-amine trifluoroacetate] | ≤ 5 µM | ≤ 1 µM |
| COc1cccc(COc2ccc(Nc3ncnc4sc5c(c34)CCc3c-5cnn3CCN3CCN(C)CC3)cc2Cl)c1 [Example 318, N-{3-chloro-4-[(3-methoxybenzyl)oxy]phenyl}-3-[2-(4-methylpiperazin-1-yl)ethyl]-4,5-dihydro-3H-pyrimido[5′,4′:4,5]thieno[2,3-e]indazol-6-amine] | ≤ 5 µM | ≤ 5 µM |
| CN1CCN(CCn2ncc3c2CCc2c-3sc3ncnc(Nc4ccc(OCc5cccc(C(F)(F)F)c5)c(Cl)c4)c23)CC1 [Example 319, N-(3-chloro-4-{[3-(trifluoromethyl)benzyl]oxy}phenyl)-3-[2-(4-methylpiperazin-1-yl)ethyl]-4,5-dihydro-3H-pyrimido[5′,4′:4,5]thieno[2,3-e]indazol-6-amine] | ≤ 5 µM | ≤ 5 µM |
